Assay: Cytotoxicity against mouse Neuro2a cells
Format: functional, cell-based
Conditions: N2a

SMILES: CC/C=C/C=C/CC[C@]1(C)C[C@H](O)[C@H](C)CC[C@H]2C[C@@H](O[C@@H]3O[C@@H](C)[C@H](OC)[C@@H](O)[C@H]3OC)C[C@@](O)(CC(=O)O1)O2 [LYNGBOUILLOSIDE]
- IC50: 17 µM

From ChEMBL document CHEMBL1150601, “Lyngbouilloside, a novel glycosidic macrolide from the marine cyanobacterium Lyngbya bouillonii” (J Nat Prod, 2002)
